Marks after values point to notes of the source that are not given here.
Experiments:
[1] = tested on: Escherichia coli 0157:H7 ATCC 700728; experiment: Minimal Inhibitory Concentration test (OD) with bactericidal/static check; format: cell-based; details: for Bactericidal or Static check of optically clear MIC tubes, Escherichia coli 0157:H7 ATCC 700728: 0 CFU/ml needed for bactericidal
Method: (§1) Sterile, 12×75 mm plastic test tubes were used to perform the test. 1 mL of the test compositions were placed in the appropriate labeled tubes. 1 mL of each adjusted bacterial inoculum was added to each appropriate labeled tube in the dilution series and mixed. The tubes were closed with loose caps. The tubes were then incubated at 37° C. for 24 hours with the exception of the Campylobacter tubes, which were incubated microaerophilically at 42° C. for 48 hours. At the end of the incubation phases the tubes were examined for turbidity. All optically clear tubes were plated to agar plates to determine if the test article was bactericidal or bacteriostatic. A product was considered to be “bactericidal” if less than 3 CFU were detected (Clear tubes with a few CFU), and “bacteriostatic” if greater the 3 CFU were detected (Clear tubes and growth detected).
(§2) The tubes were examined for turbidity, indicating growth of the organism. […] The lowest concentration of the agent that inhibits growth of the organism, as detected by lack of visual turbidity (matching the negative control) was designated the minimum inhibitory concentration (MIC).
(§3) Additional experiments were performed to determine bactericidal and bacteriostatic effects of preparation made from wine lees from different varietals, effects of aging of preparations on bactericidal and bacteriostatic effectiveness, and to compare effectiveness to conventional antibiotic treatment. Methods were as described above for testing bacteriostatic and bactericidal effects. Preparations were tested against Salmonella enterica (ATCC 8759) and E. coli 0157:H7 (ATCC 700728).
(§4) The following preparations were tested: a lees preparation from Chardonnay grapes that had not been enzymatically treated and had been prepared approximately 2 months before testing (CH16), a lees preparation from Pinot Noir grapes that had not been enzymatically treated and had been prepared approximately 14 months before testing (PNC15), a lees preparation from Pinot Noir grapes that had not been enzymatically treated and had been prepared approximately 2 months before testing (PNC16), a lees preparation from Cabernet Franc grapes that had been enzymatically treated and had been prepared approximately 2 months before testing (CFE16), CELMANAX™ (SCP) (hydrolyzed yeast), and salinomycin, 0.005% solution (antibiotic).

[2] = tested on: Salmonella enterica ATCC 8759; experiment: as above; format: cell-based; details: 0 CFU/ml needed for bactericidal
Method: as §1, §2, §3, §4

[3] = In vivo calf study: rectal temperature and fecal consistency score; parameters: species or system Holstein calves
Method: (§5) An in vivo study was performed to compare effects of lees-based preparations as disclosed herein to conventional commercially available product yeast fermentation product and Decoquinate on performance and health of neonatal Holstein calves. […] PNC16 was compared with CELMANAX™ (SCP) (hydrolyzed yeast) and an antibiotic, DECCOX®-M manufactured by Zoetis Inc., Decoquinate.
(§6) The study was conducted at Spruce Haven Farms, Union Springs, N.Y., a commercial dairy consisting of 1,800 mature cows. There were thirty calf hutches available to conduct the trial that were aligned in one row. The study consisted of thirty female Holstein calves. As calves were born they were successively placed on one of four treatments until 28 calves were assigned, then the remaining 2 calves were assigned to treatment 2 and 3 respectively.
(§7) Fecal samples (˜10-20 g) were obtain via digital stimulation from each calf on day 7, 14 and 21 of life. Samples were sent to the Cornell Diagnostic Laboratory for zinc sulfate floatation to determine type and degree of fecal shedding. Body temperatures were take just prior to fecal collections on day 7, 14 and 21 of life. Fecal consistency scores: were recorded for each calf daily using the following scale: 1=soft, solid consistency, no fluid, 2=semi-solid, mostly solid, 3=runny: semi solid, mostly fluid, 4=watery, all fluid 5=watery with blood.

[4] = In vivo calf study: body weight gain; parameters: species or system Holstein calves
Method: An in vivo study was performed to compare effects of lees-based preparations as disclosed herein to conventional commercially available product yeast fermentation product and Decoquinate on performance and health of neonatal Holstein calves. Lees was prepared as described above (a lees preparation from Pinot Noir grapes that had not been enzymatically treated and had been prepared approximately 6 months before testing (PNC16)). PNC16 was compared with […]) (hydrolyzed yeast) and an antibiotic, DECCOX®-M manufactured by Zoetis Inc., Decoquinate. The study was conducted at Spruce Haven Farms, Union Springs, N.Y., a commercial dairy consisting of 1,800 mature cows. There were thirty calf hutches available to conduct the trial that were aligned in one row. The study consisted of thirty female Holstein calves. As calves were born they were successively placed on one of four treatments until 28 calves were assigned, then the remaining 2 calves were assigned to treatment 2 and 3 respectively. […] Calves were housed in fiberglass hutches (4'×8') with an outside run (4'×6') with straw bedding inside the hutch. Within 2 hr. of birth, calves were offered 4 lb. of colostrum. Thereafter, pasteurized whole milk was offered twice daily (08:00 and 16:00 h) and water and dry calf starter was available at all times in removable buckets. During the morning feeding the liquid (CEL or PNC16) or dry (22.7 mg) test articles were dissolved in the milk. Calves body weights were recorded when moved into the hutches and again at 21 d of life.

cryptosporidiosis = details: Moore (2003); cited from earlier work
Cryptosporidium oocytes = experiment: In vivo calf study: fecal shedding of Cryptosporidium oocytes; parameters: species or system Cryptosporidium (in Holstein calves)
Method: as §5, §6, §7

Eimeria species = experiment: In vivo calf study: fecal shedding of Eimeria species; parameters: species or system Eimeria (in Holstein calves); details: day 21 of age (FIG. 4); Control 71.5%
Method: as §5, §6, §7

[5] = In vivo calf study: hematology and haptoglobin; parameters: species or system Holstein calves; details: 10 day old calves
Method: An in vivo study was performed to compare effects of lees-based preparations as disclosed herein to conventional commercially available product yeast fermentation product and Decoquinate on performance and health of neonatal Holstein calves. Lees was prepared as described above (a lees preparation from Pinot Noir grapes that had not been enzymatically treated and had been prepared approximately 6 months before testing (PNC16)). PNC16 was compared with […]) (hydrolyzed yeast) and an antibiotic, DECCOX®-M manufactured by Zoetis Inc., Decoquinate. The study was conducted at Spruce Haven Farms, Union Springs, N.Y., a commercial dairy consisting of 1,800 mature cows. There were thirty calf hutches available to conduct the trial that were aligned in one row. The study consisted of thirty female Holstein calves. As calves were born they were successively placed on one of four treatments until 28 calves were assigned, then the remaining 2 calves were assigned to treatment 2 and 3 respectively. […] Blood samples were collected via jugular vein-puncture before the pm milk feeding on day 10 of life. Samples were collected in heparinized vacutainers. Whole blood was analyzed for hematology: red blood count, hematocrit, hemoglobin, mean cell volume, mean cell hemoglobin, mean cell hemoglobin concentration, red cell distribution width, reticulocyte, white blood cell: neutrophil, lymphocyte, monocyte, eosinophil, basophil, platelet, mean platelet volume, platelet, distribution width and procalcitonin. Plasma was obtained by centrifugation at 1,500×g for 15 min. Plasma samples were frozen (-40° C.) and shipped to the Michigan State University (DCPAH) laboratory for haptoglobin analysis.

[6] = 20 Mg/ml (ABX: salinomycin 0.005% solution)
[7] = 40 Mg/ml (ABX: salinomycin 0.005% solution)

CC[C@@H](C(=O)[C@@H](C)[C@@H](O)[C@H](C)[C@@H]1O[C@@H]([C@@H](CC)C(=O)O)CC[C@@H]1C)[C@H]1O[C@]2(C=C[C@@H](O)[C@]3(CC[C@@](C)([C@H]4CC[C@](O)(CC)[C@H](C)O4)O3)O2)[C@H](C)C[C@@H]1C [ABX, salinomycin]
Turbidity Reading (OD), Escherichia coli 0157:H7 ATCC 700728 [1]: .075^c OD | Bactericidal or Static check of optically clear MIC tubes, Escherichia coli 0157:H7 ATCC 700728 [1, 6]: 950 CFU/ml | Bactericidal or Static check of optically clear MIC tubes, Escherichia coli 0157:H7 ATCC 700728 [1, 7]: 950 CFU/ml | Bactericidal or Static check of optically clear MIC tubes, Salmonella enterica ATCC 8759 [2, 6]: 50,000 CFU/ml | Bactericidal or Static check of optically clear MIC tubes, Salmonella enterica ATCC 8759 [2, 7]: 50,000 CFU/ml

CCCCCCCCCCOc1cc2c(O)c(C(=O)OCC)cnc2cc1OCC [DECCOX ®, Decoquinate]
Fecal consistency score (FCS) ([3]; between day 12 and 17 d of life, scale 1-5, Control 2.3): 2.4 | Rectal temperature ([3]; day 14, comparison in words): higher (p<005) than PNC16 | Birth wt ([4]; baseline at birth, Control 40.4): 40.2 kg | Body wt gain ([4]; birth through day 21, Control 6.8): 7.3 kg | ADG ([4]; birth through day 21, Control .32): .35 kg/day | Day 21 wt ([4]; day 21 of life, Control 47.1): 47.6^b kg | clinical benefit as preventative treatment for cryptosporidiosis (cryptosporidiosis): no clinical benefit | Cryptosporidium Oocytes/g of feces (Cryptosporidium oocytes; Day 1, Control 0): 0 Oocytes/g of feces | % of calves shedding Cryptosporidium oocytes (Cryptosporidium oocytes; Day 1, Control 0.0): 0.0% | % of calves shedding Cryptosporidium oocytes (Cryptosporidium oocytes; Day 7, Control 71.4): 28.6% | Cryptosporidium Oocytes/g of feces (Cryptosporidium oocytes; Day 7, Control 85638): 2^b Oocytes/g of feces | % of calves shedding Cryptosporidium oocytes (Cryptosporidium oocytes; Day 14, Control 85.0): 100.0% | Cryptosporidium Oocytes/g of feces (Cryptosporidium oocytes; Day 14, Control 14153): 209473^a Oocytes/g of feces | % of calves shedding Cryptosporidium oocytes (Cryptosporidium oocytes; Day 21, Control 28.6): 28.6% | Cryptosporidium Oocytes/g of feces (Cryptosporidium oocytes; Day 21, Control 368): 11^b Oocytes/g of feces | Percent of calves shedding Eimeria (Eimeria species): 0% | Basophil (Baso) ([5]; Control 0.01): 0.00 K/ul | Monocyte (Mono) ([5]; Control 0.02): 0.05 K/ul | Eosinophil (Eosin) ([5]; Control 0.03): 0.08 K/ul | Neutrophil (NEUT) ([5]; Control 3.7): 5.1 K/ul | Lymphocyte (LYMPH) ([5]; Control 4.2): 2.4 K/ul | Mean Platelet Volume (MPV) ([5]; Control 5.5): 5.6 fL | Platelet Distribution Width (PDW) ([5]; Control 6.34): 7.72^a fL | Reticulocyte (Ret) ([5]; Control 7.13): 1.49^b K/ul | Red Blood Count (RBC) ([5]; Control 7.4): 7.1 M/uL | White Blood Cell (WBC) ([5]; Control 7.96): 7.67^b K/ul | Hemoglobin (HBG) ([5]; Control 9.4): 8.9 g/dL | Mean Cell Hemoglobin (MCH) ([5]; Control 12.6): 12.4 pg | Hematocrit (HCT) ([5]; Control 29.8): 28.5% | Red Cell Distribution Width (RDW) ([5]; Control 31.4): 30.7% | Mean Cell Hemoglobin Concentration (MCHC) ([5]; Control 31.5): 31.4 g/dL | Mean Cell Volume (MCV) ([5]; Control 40.0): 39.8 fL | Platelet (Plt) ([5]; Control 654.7): 579.8^b K/ul | Neutrophil/Lymphocyte Ratio (NLR) ([5]; Control .87): 2.11^a | Percentages Baso ([5]; percent of white cells, Control 0.19): 0.00% | Percentages Mono ([5]; percent of white cells, Control 0.21): 0.63% | Percentages Eosin ([5]; percent of white cells, Control 0.34): 0.98% | Percentages Neutrophil ([5]; percent of white cells, Control 48.38): 66.63^a % | Percentages Lymphocyte ([5]; percent of white cells, Control 50.87): 31.75^b % | Haptoglobin (Hp) ([5]; plasma, Control 24.13): 64.5 µg/mL

Reference: patent US10828344B2, “Antimicrobial yeast preparation and methods for preparation and use thereof” (priority 2016, dated 2020)
